Experimental data reported in patent publication US12122778B2, “Activating pyruvate kinase R” (Novo Nordisk Health Care AG, priority 2018, dated 2024).

Tests used:
PKR(wt) = PKR(wt) (Homo sapiens, UniProt P30613); experiment: Luminescence Biochemical Assay (Kinase Glo Plus), wild type PKR; conditions: without FBP; for activation at 1.54 µM: 1.54 μM compound, read-out: AC50 LUM KGP woFBP % Fold@1.54 μM mean; for Emax: read-out: AC50 LUM KGP woFBP MAX % FOLD mean; for AC50: read-out: AC50 LUM KGP woFBP AC50 μM gmean
PKR(R510Q) = PKR(R510Q) (Homo sapiens, UniProt P30613, R510Q); experiment: Luminescence Biochemical Assay (Kinase Glo Plus), PKR R510Q mutant; conditions: without FBP; for activation at 1.54 µM: 1.54 μM compound, read-out: AC50 LUM KGP woFBP % Fold@1.54 μM mean; for AC50: read-out: AC50 LUM KGP woFBP AC50 μM gmean; for Emax: read-out: AC50 LUM KGP woFBP MAX % FOLD mean
PKR(G332S) = PKR(G332S) (Homo sapiens, UniProt P30613, G332S); experiment: Luminescence Biochemical Assay (Kinase Glo Plus), PKR G332S mutant; conditions: with FBP; for activation at 1.54 µM: 1.54 μM compound, read-out: AC50 LUM KGP FBP % Fold@1.54 μM mean; for AC50: read-out: AC50 LUM KGP FBP AC50 μM gmean (column A); for Emax: read-out: AC50 LUM KGP FBP MAX % FOLD mean
Sequence of PKR(G332S) (P30613 whole entry G332S): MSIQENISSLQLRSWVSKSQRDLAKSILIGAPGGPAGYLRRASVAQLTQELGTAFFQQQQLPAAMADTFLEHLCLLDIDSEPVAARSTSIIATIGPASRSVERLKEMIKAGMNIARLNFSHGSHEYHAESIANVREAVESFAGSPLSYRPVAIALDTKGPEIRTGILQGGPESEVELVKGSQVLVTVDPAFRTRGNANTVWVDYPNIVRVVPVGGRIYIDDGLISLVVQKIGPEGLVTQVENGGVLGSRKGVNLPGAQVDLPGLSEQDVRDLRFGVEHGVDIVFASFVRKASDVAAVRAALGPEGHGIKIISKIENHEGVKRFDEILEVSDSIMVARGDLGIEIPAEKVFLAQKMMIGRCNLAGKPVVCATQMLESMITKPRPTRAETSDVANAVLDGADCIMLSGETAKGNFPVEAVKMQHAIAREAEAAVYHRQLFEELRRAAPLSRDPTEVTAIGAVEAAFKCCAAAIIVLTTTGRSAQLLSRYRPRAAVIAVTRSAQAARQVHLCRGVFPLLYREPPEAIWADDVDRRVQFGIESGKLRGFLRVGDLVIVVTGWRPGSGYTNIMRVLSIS

Sequence of PKR(R510Q) (P30613 whole entry R510Q): as the sequence (P30613 whole entry G332S) above, with S332G, R510Q counted along it
Sequence of PKR(wt) (P30613 whole entry): as the sequence (P30613 whole entry G332S) above, with S332G counted along it

| SMILES | activation at 1.54 µM (PKR(wt)) [%] | Emax (PKR(wt)) [%] | activation at 1.54 µM (PKR(R510Q)) [%] | AC50 (PKR(R510Q)) [µM] | Emax (PKR(R510Q)) [%] | activation at 1.54 µM (PKR(G332S)) [%] | AC50 (PKR(G332S)) [µM] | Emax (PKR(G332S)) [%] | AC50 (PKR(wt)) [µM] |
| --- | --- | --- | --- | --- | --- | --- | --- | --- | --- |
| O=C([C@H](O)c1ccccc1)N1CC2=C(C1)CN(S(=O)(=O)c1ccccn1)C2 [Example 9-2, (2R)-2-hydroxy-2-phenyl-1-[5-(pyridine-2-sulfonyl)-1H,2H,3H,4H,5H,6H-pyrrolo[3,4-c]pyrrol-2-yl]ethan-1-one] | 75 to 250 | 75 to 250 | 75 to 250 | 0.1 to 1 | 250 to 500 | 75 to 250 | 0.1 to 1 | 75 to 250 | – |
| O=C(NCc1ccccc1F)N1CC2=C(C1)CN(S(=O)(=O)c1cccnc1)C2 [Example 21-37, N-[(2-fluorophenyl)methyl]-5-(pyridine-3-sulfonyl)-1H,2H,3H,4H,5H,6H-pyrrolo[3,4-c]pyrrole-2-carboxamide] | 75 to 250 | 250 to 500 | 250 to 50000 | 0.1 to 1 | 250 to 500 | 75 to 250 | 0.1 to 1 | 75 to 250 | 0.1 to 1 |
| CN1CCOc2ccc(S(=O)(=O)N3CC4=C(CN(C(=O)[C@H]5CCCO5)C4)C3)cc21 [Example 18-2, 4-Methyl-6-({5-[(2R)-oxolane-2-carbonyl]-1H,2H,3H,4H,5H,6H-pyrrolo[3,4-c]pyrrol-2-yl}sulfonyl)-3,4-dihydro-2H-1,4-benzoxazine] | 75 to 250 | 75 to 250 | 75 to 250 | 1 to 40 | 75 to 250 | 75 to 250 | 1 to 40 | 75 to 250 | 0.1 to 1 |
| NS(=O)(=O)c1cccc(S(=O)(=O)N2CC3=C(CN(C(=O)[C@H](O)c4ccccc4)C3)C2)c1 [Example 17-1, 3-[5-[(2R)-2-hydroxy-2-phenylacetyl]-1H,2H,3H,4H,5H,6H-pyrrolo[3,4-c]pyrrole-2-sulfonyl]benzene-1-sulfonamide] | 75 to 250 | 75 to 250 | 75 to 250 | 1 to 40 | 75 to 250 | 75 to 250 | 1 to 40 | 75 to 250 | 1 to 40 |
| O=C([C@H]1CCCO1)N1CC2=C(C1)CN(S(=O)(=O)c1ccccn1)C2 [Example 18-60, 2-({5-[(2R)-oxolane-2-carbonyl]-1H,2H,3H,4H,5H,6H-pyrrolo[3,4-c]pyrrol-2-yl}sulfonyl)pyridine] | 75 to 250 | 250 to 500 | 75 to 250 | 1 to 40 | 250 to 500 | 75 to 250 | 1 to 40 | 75 to 250 | 1 to 40 |
| Cc1cc(CNC(=O)N2CC3=C(C2)CN(S(=O)(=O)c2ccccn2)C3)no1 [Example 21-43, N-[(5-methyl-1,2-oxazol-3-yl)methyl]-5-(pyridine-2-sulfonyl)-1H,2H,3H,4H,5H,6H-pyrrolo[3,4-c]pyrrole-2-carboxamide] | 75 to 250 | 250 to 500 | 75 to 250 | 1 to 40 | 250 to 500 | 75 to 250 | 0.1 to 1 | 75 to 250 | 1 to 40 |
| O=C(Cc1ccc[nH]1)N1CC2=C(C1)CN(S(=O)(=O)c1cccnc1)C2 [Example 18-73, 1-[5-(Pyridine-3-sulfonyl)-1H,2H,3H,4H,5H,6H-pyrrolo[3,4-c]pyrrol-2-yl]-2-(1H-pyrrol-2-yl)ethan-1-one] | 75 to 250 | 75 to 250 | 75 to 250 | 1 to 40 | 75 to 250 | 75 to 250 | 1 to 40 | 75 to 250 | 1 to 40 |
| O=C(OCC1CC1)N1CC2=C(C1)CN(S(=O)(=O)c1ccc(OC(F)F)cc1)C2 [Example 22-2, Cyclopropylmethyl 5-[4-(difluoromethoxy)benzenesulfonyl]-1H,2H,3H,4H,5H,6H-pyrrolo[3,4-c]pyrrole-2-carboxylate] | 75 to 250 | 250 to 500 | 75 to 250 | 1 to 40 | 250 to 500 | 75 to 250 | 1 to 40 | 75 to 250 | 1 to 40 |
| O=C(OCC1CCOC1)N1CC2=C(C1)CN(S(=O)(=O)c1ccc(OC(F)F)cc1)C2 (centres unmarked) [Example 22-3, Oxolan-3-ylmethyl 5-[4-(difluoromethoxy)benzenesulfonyl]-1H,2H,3H,4H,5H,6H-pyrrolo[3,4-c]pyrrole-2-carboxylate] | 75 to 250 | 75 to 250 | 75 to 250 | 1 to 40 | 75 to 250 | 75 to 250 | 1 to 40 | 75 to 250 | 1 to 40 |
